From patent US20120129842A1, “BISTHIAZOLE INHIBITORS OF PRO-MATRIX METALLOPROTEINASE ACTIVATION” (priority 2010, published 2012)
pIC50, pKd: −log10 of the molar value. Counter-ions that a name gives are not always drawn.

Experiments:
[1] = target: T1, proMMP9(20-445;ΔFnII) (SEQ ID NO:6) (Homo sapiens, UniProt P14780, DEL216-390); experiment: ThermoFluor binding assay with proMMP9(20-445;ΔFnII); settings: pH 7.0
T1 construct: start methionine (N); made in house; host or cells: E. coli BL21(DE3) RIL
T1 sequence (P14780 with tags, fused parts or gaps DEL216-390): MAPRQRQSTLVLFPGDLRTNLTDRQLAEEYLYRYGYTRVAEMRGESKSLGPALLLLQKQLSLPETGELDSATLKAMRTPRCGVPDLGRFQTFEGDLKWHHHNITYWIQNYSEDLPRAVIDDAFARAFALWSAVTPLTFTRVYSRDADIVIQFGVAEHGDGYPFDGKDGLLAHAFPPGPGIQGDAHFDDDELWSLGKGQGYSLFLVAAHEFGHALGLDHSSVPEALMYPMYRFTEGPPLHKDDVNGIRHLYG
In short: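 proMMP9(20-445;ΔFnII) at 2.8 μM with 50 μM 1,8-ANS in 50 mM HEPES pH 7.0, 100 mM NaCl, 0.001% Tween-20, 2.5 mM MgCl2, 300 μM CaCl2; compounds serially diluted in DMSO. Heated 40–90 °C at 1 °C/min, fluorescence read at 500±25 nm. Tm fit by standard equations; binding fit using DSC/TF-derived thermodynamic parameters.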

[2] = target: T2, proMMP9(67-444;ΔFnII) (SEQ ID NO:5) (Homo sapiens, UniProt P14780, DEL216-390); experiment: ThermoFluor binding assay with proMMP9(67-444;ΔFnII); settings: pH 7.0
T2 construct: start methionine (N); made in house; host or cells: E. coli BL21(DE3) RIL
T2 sequence (P14780 with tags, fused parts or gaps DEL216-390): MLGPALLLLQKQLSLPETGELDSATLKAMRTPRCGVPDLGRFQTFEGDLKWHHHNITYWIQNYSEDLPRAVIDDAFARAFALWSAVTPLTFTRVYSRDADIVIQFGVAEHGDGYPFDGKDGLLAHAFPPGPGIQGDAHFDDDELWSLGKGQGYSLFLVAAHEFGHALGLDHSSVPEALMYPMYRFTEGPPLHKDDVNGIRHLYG
In short: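 Thermal shift binding with 3.5 μM proMMP9(67-444;ΔFnII) and 50 μM 1,8-ANS in 50 mM HEPES pH 7.0, 100 mM NaCl, 2.5 mM MgCl2, 300 μM CaCl2, 0.001% Tween-20, with serially diluted compound. Heated 40 to 90° C at 1° C/min; fluorescence-derived Tm fitted using DSC/ThermoFluor thermodynamic parameters.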

[3] = target: T3, full-length proMMP9(1-707) (SEQ ID NO:1) (Homo sapiens, UniProt P14780, R574P); experiment: proMMP9/MMP3 P126 Activation Assay; type: biochemical; settings: 20 nM proMMP9, 20 nM MMP3, 80 min 37° C.
T3 construct: made in house; host or cells: HEK293 (proMMP9, secreted); E. coli (MMP3)
Description: The reaction volume was 50 μL. […] Reactivity of residual MMP3 towards P-126 substrate was minimal under these conditions.

[4] = target: proMMP13(1-268) (SEQ ID NO:7) (Homo sapiens, UniProt P45452); experiment: ThermoFluor binding assay with proMMP13(1-268); parameters: 6xHis (C); made in house; settings: pH 7.0
In short: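 Thermal shift binding with 3.5 μM protein and 25 μM 1,8-ANS in 50 mM HEPES pH 7.0, 100 mM NaCl, 0.001% Tween-20, 2.5 mM MgCl2, 300 μM CaCl2. Samples were heated 40 to 90 °C at 1 °C/min, fluorescence read at 500 nm. Tm shifts across an 11-point DMSO dilution series were fitted with DSC-derived thermodynamic parameters.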

T3 sequence (P14780 20-707 R574P): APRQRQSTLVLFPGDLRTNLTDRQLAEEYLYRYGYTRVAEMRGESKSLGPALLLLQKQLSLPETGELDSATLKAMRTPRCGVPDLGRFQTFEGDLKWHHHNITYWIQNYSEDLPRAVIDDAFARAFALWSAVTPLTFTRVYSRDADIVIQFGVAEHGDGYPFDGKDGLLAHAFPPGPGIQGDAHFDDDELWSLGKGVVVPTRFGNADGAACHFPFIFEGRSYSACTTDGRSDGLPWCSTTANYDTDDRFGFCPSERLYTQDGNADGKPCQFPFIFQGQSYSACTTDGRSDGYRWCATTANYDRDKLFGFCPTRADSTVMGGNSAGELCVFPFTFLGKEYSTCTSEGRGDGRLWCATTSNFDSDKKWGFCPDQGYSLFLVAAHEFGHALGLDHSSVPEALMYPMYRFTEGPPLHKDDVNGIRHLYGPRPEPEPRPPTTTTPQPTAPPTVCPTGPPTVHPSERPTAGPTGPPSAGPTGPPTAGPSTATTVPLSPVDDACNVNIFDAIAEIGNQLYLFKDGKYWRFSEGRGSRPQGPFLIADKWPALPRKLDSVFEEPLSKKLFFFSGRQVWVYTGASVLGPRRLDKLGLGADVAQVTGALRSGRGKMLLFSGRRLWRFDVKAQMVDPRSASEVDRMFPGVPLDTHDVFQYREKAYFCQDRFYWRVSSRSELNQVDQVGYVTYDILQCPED

Compound	pKd [1]	pKd [2]	pIC50 [3]	pKd [4]
Cc1nc(C(=O)N(C)C)sc1-c1csc(Nc2cc(C(N)=O)ccc2OC(C)C)n1 [Example 106, 2-(5-Carbamoyl-2-isopropoxy-phenylamino)-4′-methyl-[4,5′]bithiazolyl-2′-carboxylic acid dimethylamide.TFA]	5.92	6.30	6.04	5.66
Cc1nc(C(=O)N2CCN(c3ccc(C(F)(F)F)cn3)CC2)sc1-c1csc(Nc2cc(C(N)=O)ccc2OC(C)C)n1 [Example 109, 4-Isopropoxy-3-{4′-methyl-2′-[4-(5-trifluoromethyl-pyridin-2-yl)-piperazine-1-carbonyl]-[4,5′]bithiazolyl-2-ylamino}-benzamide.TFA]	5.42	< 4.02	5.24	< 4.02
Cc1nc(C(=O)N2CCCN(C(C)C)CC2)sc1-c1csc(Nc2cc(C(N)=O)ccc2OC(C)C)n1 [Example 112, 4-Isopropoxy-3-[2′-(4-isopropyl-[1,4]diazepane-1-carbonyl)-4′-methyl-[4,5]bithiazolyl-2-ylamino]-benzamide.TFA]	5.85	5.66	6.28	< 4.24
Cc1nc(C(=O)NC2CCN(C)CC2)sc1-c1csc(Nc2cc(C(N)=O)ccc2OC(C)C)n1 [Example 113, 2-(5-Carbamoyl-2-isopropoxy-phenylamino)-4′-methyl-[4,5′]bithiazolyl-2′-carboxylic acid (1-methyl-piperidin-4-yl)-amide.TFA]	5.82	5.72	6.24	< 4.24
CCN1CCCN(C(=O)c2nc(C)c(-c3csc(Nc4cc(C(N)=O)ccc4OC(C)C)n3)s2)CC1 [Example 114, 3-[2′-(4-Ethyl-[1,4]diazepane-1-carbonyl)-4′-methyl-[4,5′]bithiazolyl-2-ylamino]-4-isopropoxy-benzamide.TFA]	6.16	6.02	6.51	5.74
CCOc1ccc(C(N)=O)cc1Nc1nc(-c2sc(C(=O)N3CCN(C)CC3)nc2C)cs1 [Example 115, 4-Ethoxy-3-[4′-methyl-2′-(4-methyl-piperazine-1-carbonyl)-[4,5′]bithiazolyl-2-ylamino]-benzamide.TFA]	5.55	5.42	6.06	5.19

These reach a higher pKd [1]. Values come first.

pKd [1]	pKd [2]	pIC50 [3]	pKd [4]	Compound
6.70	6.28	6.82	6.27	Cc1nc(C(=O)N(C)CCN(C)C)sc1-c1csc(Nc2cc(C(N)=O)ccc2OC(C)C)n1 [Example 107, 2-(5-Carbamoyl-2-isopropoxy-phenylamino)-4′-methyl-[4,5′]bithiazolyl-2′-carboxylic acid (2-dimethylamino-ethyl)-methyl-amide.TFA]
6.51	< 4.02	5.77	6.49	Cc1nc(C(=O)N2CCN(C3CCCCC3)CC2)sc1-c1csc(Nc2cc(C(N)=O)ccc2OC(C)C)n1 [Example 108, 3-[2′-(4-Cyclohexyl-piperazine-1-carbonyl)-4′-methyl-[4,5′]bithiazolyl-2-ylamino]-4-isopropoxy-benzamide.TFA]
6.89	6.32	6.70	6.16	Cc1nc(C(=O)N2CCC(N(C)C)CC2)sc1-c1csc(Nc2cc(C(N)=O)ccc2OC(C)C)n1 [Example 110, 3-[2′-(4-Dimethylamino-piperidine-1-carbonyl)-4′-methyl-[4,5]bithiazolyl-2-ylamino]-4-isopropoxy-benzamide.TFA]
7.07	6.54	7.09	6.44	Cc1nc(C(=O)NC2CCN(C(C)C)CC2)sc1-c1csc(Nc2cc(C(N)=O)ccc2OC(C)C)n1 [Example 111, 2-(5-Carbamoyl-2-isopropoxy-phenylamino)-4′-methyl-[4,5′]bithiazolyl-2′-carboxylic acid (1-isopropyl-piperidin-4-yl)-amide.TFA]
